Results on one substance are retold here after patent US20100267638A1, “EXOSITE-DIRECTED THROMBIN INHIBITORS” (CLEVELAND STATE UNIVERSITY, priority 2003, published 2010).

Experiment [1] has as its target T1, active-site-immobilized thrombin (Homo sapiens, UniProt P00734).
T1 construct: Factor Xa cleaves prothrombin to form thrombin; purchased Haematologic Technologies Inc. (Essex Junction, Vt.)
The experiment can be described thus: Direct binding of the peptides to thrombin-agarose (chromatography). Conditions: 400 μg peptide, 2.5 ml column, elution 2M NaCl. As to the method: Direct binding of the peptides to thrombin. Thrombin was immobilized onto agarose through the active site as described. Peptide solutions of HC1-HC5 (SEQ ID NO. 2-6, respectively), D13R (SEQ ID NO. 21), DYDYQ (SEQ ID NO. 11), and P15H (SEQ ID NO. 22) were dissolved in water to a given concentration and then diluted in 20 mM Hepes, 0.1 M NaCl, pH 7.4 in a manner that 400 μg was contained in each starting solution. In control experiments it was determined that the maximum amount of peptide that could be retained by the thrombin-agarose column was 400 μg. Since some of the peptides contain aromatic amino acid residues, their concentration was also measured by optical density.
Mass spectrometry instruments and conditions. The identity of all peptides found in the flow-through or the elution of the thrombin-agarose column was verified by mass spectrometry. Since the peptides were in a buffer solution, we used Liquid Chromatography/Mass Spectrometry (LC/MS) for their identification. In this procedure peptides are first separated from the salt content of the buffer using an HPLC system (HP 1100, HPLC gradient system, Agilent Technologies, Palo Alto Calif.) with a C18 column (1 mm×15 cm, GraceVydac, Hesperia Calif.) with buffers A (0.3% acetic acid in water) and B (0.3% acetic acid in acetonitrile). The elution of the column was monitored with a Micromass Quatro II ESI-Triple Quadrupole Mass Spectrometer (Waters, Milford Mass.). The data were collected using a Compaq Professional Workstation AP200 (Hewlett-Packard, Palo Alto Calif.) and analyzed by the software MassLynx v3.3 (Waters, Milford Mass.).
Direct interaction of hirudin-like peptides from factor tor Va heavy chain With thrombin-agarose. To ascertain that the peptides of interest are inhibitory of prothrombinase activity and contain a binding site for thrombin, the interaction of all peptides with active-site-immobilized thrombin was studied in chromatographic experiments and is shown in FIG. 5. In FIG. 5, small scale chromatography of hirudin-like peptides was performed on a 2.5 ml thrombin-agarose. Each run represents 400 μg of peptide. This amount of peptide was determined to saturate the specific sites of thrombin of the column used (2.5 ml). Elution was performed with 2M NaCl and was started at the point indicated by the arrow (fraction #30). The presence of the peptides in the corresponding fractions was monitored by absorbance at 280 nm (shown on the y axis) and by LC/MS (inset). […] Specifically, these peptides were treated similarly to all other peptides and similar fractions were collected. Aliquots from fractions #7 and #35 from each separate experiment were submitted to LC/MS analysis as described herein (depicted by the hatched arrows at the bottom of the chromatogram). The results from tube #7 from three chromatograms are depicted. The data are presented as % intensity of the signal as a function of the mass of the peptide divided by the charge (m/z). FIG. 5A, HC1 (Mr calculated 1268); FIG. 5B, HC2 (Mr calculated 1132); FIG. 5C, HC5 (Mr calculated 1053). The spectrum of HC1 has two major peaks: at 635.5 and at 424, and one minor peak at 1270 (1268+1). The peak at 635.5 represents the peptide (mass/charge) with two positive charges ([…]) i.e. [(1268+2=1270)]/2=635 whereas, the peak at 424 represents HC1 with three positive charges ([…]) i.e. [(1268+3=1271)]/3=424. […] HC5 spectrum has two major peaks: one at 528 and one at 352. The peak at 528 represents the peptide with two positive charges ([…]) i.e. [(1053+2=1055)]/2=527.5 while, the other peak represents HC5 with three positive charges ([M+31-]^2+) i.e. [(1053+3=1056)]/3=352. The minor peak at 1054 represents the peptide with one charge. It is noteworthy, that in gas phase the number of protons attached to each peptide depends on the number (quantity) of basic residues contained in each peptide. […] Thus, HC1 and HC5 are more likely to bind two or three protons than HC2. […]

The target in a further experiment is T2, prothrombinase (Homo sapiens, UniProt P00734).
T2 construct: purchased Haematologic Technologies Inc. (Essex Junction, Vt.)
As to the kind of experiment: Assay measuring thrombin formation (prothrombinase inhibition by peptides, DAPA fluorescence). The format is biochemical.

“Also recorded” adds a separate entry of the source. No end group written: not given here.

As for DYDYQ [DYDYQ, Asp-Tyr-Asp-Tyr-Gln], in experiment [1], the “interaction with immobilized thrombin (thrombin-agarose)” value is “eluted from the column with high-salt buffer; also recorded: interact with immobilized thrombin”. Besides, the “concentration at which complete inhibition of prothrombinase occurred” value on prothrombinase (FIG. 3A) is 40 µM. Besides, the “inhibition of prothrombinase activity with increasing peptide” value at prothrombinase (FIG. 10A, up to 8000 nM) is recorded as “decrease in the activity of prothrombinase”. Moreover, on prothrombinase (calculated from IC50 of 1.6 μM as in FIG. 2C legend, read-out: Ki for inhibition of prothrombinase), the Ki is 0.85 µM. The IC50 on prothrombinase (factor Va 4 nM, factor Xa 10 nM, prothrombin 350 nM, PCPS 10 μM, peptide preincubated with factor Va) was found to be 1.6 µM.

One may read the Ki as a dissociation constant, usually derived from enzyme kinetics or from competition with a known ligand. For orientation: IC50 means the concentration needed to halve the response being measured.
